In paper PMC3293351, “Pharmacokinetics and Excretion Studies on CDRI-85/92, an Antiulcer Proton Pump Inhibitor” (Scientia Pharmaceutica, 2011):
Where “and” joins values, the source holds several entries; their conditions need not be identical. Identical values can stand only once. Like-named read-outs stand apart in the source and are kept apart here.

Legend:
Aqueous solubility = assay type: physicochemical
[1] = Urinary, fecal and biliary excretion after 20 mg/kg oral and intravenous dose; assay type: in vivo, Sprague Dawley rats; conditions: for k el: Sprague Dawley, rat; for Excreted in urine, % of the dose: intravenously treated rats, bile duct cannulated as well as noncannulated
Protocol: Urinary, fecal and biliary excretion of CDRI-85/92 was studied in rats (n=3 per group) after a single 20 mg/kg oral and intravenous dose. Following treatment with CDRI-85/92, urine and feces samples were collected during 24 h with 12 h intervals. Urine was measured and kept in parafilm sealed tubes at −60°C till analyses. Feces samples were dried at 37°C, weighed, ground to fine powder using mortar-pestle and stored in desiccator until analyses. Untreated rats were housed in metabolic cages with food and water ad libitum and their feces and urine collected to serve as blank samples for method development and validation.
For biliary excretion study, bile duct of the rats was surgically cannulated under light ether anesthesia. Rats were dosed with the solution formulation of CDRI-85/92 at 20 mg/kg orally or intravenously and placed in Bollman cages. Bile samples were collected in glass tubes at 0–12 and 12–24 h post dose. The volume of the samples were recorded and stored at −60°C until analyses.
The HPLC method described above was validated for estimation of CDRI-85/92 in urine and bile by assaying the spiked control samples in these biomatrics at three concentration levels (20, 50 and 100 ng/ml of the drug). To have a robust method, inter- and intra-day validation was also conducted (Table 2).
For the preparation of the spiked control feces samples, weighed (25 mg) quantities of drug-free powdered feces were transferred to different glass tubes, fortified with appropriated volume of working dilutions of CDRI-85/92 prepared in methanol, mixed by gentle tapping and allowed to stand at room temperature for drying. The blank, spiked or test samples were moistened with 0.2 ml of KH2PO4 buffer (20 mM, pH 3.0) followed by addition of 1.0 ml of acetonitrile for protein precipitation. The tubes were sealed with parafilm and allowed to stand at room temperature with frequent vortexing. Supernatant were processed as described above for serum samples. For each analytical run, a calibration curve was constructed using peak response against the concentration in calibration standards prepared in same biomatrix.
The amount, cumulative amount and % of the administered dose excreted via urine, bile and feces were calculated.

[2] = IV 20 mg/kg, bile duct cannulated rats
[3] = IV 20 mg/kg, non-cannulated rats
[4] = IV 20 mg/kg, non-cannulated rats, up to 24 h, 20 mg/kg
[5] = oral 20 mg/kg, bile duct cannulated rats
[6] = oral 20 mg/kg, bile duct cannulated rats, up to 24 h, 20 mg/kg
[7] = oral 20 mg/kg, non-cannulated rats
[8] = oral 20 mg/kg, non-cannulated rats, up to 24 h, 20 mg/kg

## O=C1NC(C(=O)O)/C(=C\Cc2ccccc2)O1 (centres unmarked) [CDRI-85/92, (5E)-2-oxo-5-(2-phenylethylidene)-1,3-oxazolidine-4-carboxylic acid]
Aqueous solubility; 10 and 20 mg/ml in triple distilled water
  Solubility in formulation: completely soluble
Aqueous solubility; water
  Solubility in water: freely soluble in water
[1]; [2]
  % of dose recovered, urine 0–12 h: 16.8%
  fe (fraction excreted), urine: 0.90
[1]; IV 20 mg/kg, bile duct cannulated rats, up to 24 h, 20 mg/kg
  % of dose recovered, urine total: 16.8 ± 2.7% and 16.8%
[1]; [3]
  % of dose recovered, feces 0–12 h: 0.05%
  % of dose recovered, feces 12–24 h: 0.02%
  % of dose recovered, urine 0–12 h: 15.7%
  fe (fraction excreted), feces: 0.0008
  fe (fraction excreted), urine: 0.9
[1]; [4]
  % of dose recovered, feces total: 0.08 ± 0.08% and 0.08%
  % of dose recovered, urine total: 15.7 ± 3.3% and 15.7%
[1]; bile, po, 20 mg/kg, oral 20 mg/kg, bile duct cannulated rats, read-out: Ke (excretion rate constant), bile (converted)
  k el: 2.78e-05 s⁻¹
[1]; bile, po, 20 mg/kg, oral 20 mg/kg, bile duct cannulated rats, read-out: Kel (elimination rate constant), bile (converted)
  k el: 1.33e-05 s⁻¹
[1]; feces, iv, 20 mg/kg, IV 20 mg/kg, non-cannulated rats, read-out: Ke (excretion rate constant), feces (converted)
  k el: 4.17e-05 s⁻¹
[1]; feces, iv, 20 mg/kg, IV 20 mg/kg, non-cannulated rats, read-out: Kel (elimination rate constant), feces (converted)
  k el: 8.33e-06 s⁻¹
[1]; feces, po, 20 mg/kg, oral 20 mg/kg, non-cannulated rats, read-out: Ke (excretion rate constant), feces (converted)
  k el: 1.94e-05 s⁻¹
[1]; feces, po, 20 mg/kg, oral 20 mg/kg, non-cannulated rats, read-out: Kel (elimination rate constant), feces (converted)
  k el: 1.67e-05 s⁻¹
[1]; urine, iv, 20 mg/kg, IV 20 mg/kg, bile duct cannulated rats, read-out: Ke (excretion rate constant), urine (converted)
  k el: 1.11e-05 s⁻¹
[1]; urine, iv, 20 mg/kg, IV 20 mg/kg, bile duct cannulated rats, read-out: Kel (elimination rate constant), urine (converted)
  k el: 1.39e-05 s⁻¹
[1]; urine, iv, 20 mg/kg, IV 20 mg/kg, non-cannulated rats, read-out: Ke (excretion rate constant), urine (converted)
  k el: 2.5e-05 s⁻¹
[1]; urine, iv, 20 mg/kg, IV 20 mg/kg, non-cannulated rats, read-out: Kel (elimination rate constant), urine (converted)
  k el: 2.78e-05 s⁻¹
[1]; urine, po, 20 mg/kg, oral 20 mg/kg, bile duct cannulated rats, read-out: Ke (excretion rate constant), urine (converted)
  k el: 1.67e-05 s⁻¹
[1]; urine, po, 20 mg/kg, oral 20 mg/kg, bile duct cannulated rats, read-out: Kel (elimination rate constant), urine (converted)
  k el: 1.94e-05 s⁻¹
[1]; urine, po, 20 mg/kg, oral 20 mg/kg, non-cannulated rats, read-out: Ke (excretion rate constant), urine (converted)
  k el: 1.11e-05 s⁻¹
[1]; urine, po, 20 mg/kg, oral 20 mg/kg, non-cannulated rats, read-out: Kel (elimination rate constant), urine (converted)
  k el: 1.94e-05 s⁻¹
[1]
  Excreted in urine, % of the dose: 15%
[1]; listed as CDRI 85/92
  Excreted in urine, % of the dose: ~ 15%
[1]; [5]
  % of dose recovered, bile 0–12 h: 0.3%
  % of dose recovered, bile 12–24 h: 0.08%
  % of dose recovered, urine 0–12 h: 1.5%
  % of dose recovered, urine 12–24 h: 0.2%
  fe (fraction excreted), bile: 0.0037
  fe (fraction excreted), urine: 0.83
[1]; [6]
  % of dose recovered, bile total: 0.37 ± 0.12% and 0.37%
  % of dose recovered, urine total: 1.7 ± 0.8% and 1.7%
[1]; [7]
  % of dose recovered, feces 0–12 h: 1.0%
  % of dose recovered, feces 12–24 h: 0.2%
  % of dose recovered, urine 0–12 h: 3.7%
  % of dose recovered, urine 12–24 h: 0.5%
  fe (fraction excreted), feces: 0.012
[1]; [8]
  % of dose recovered, feces total: 1.2 ± 0.6% and 1.2%
  % of dose recovered, urine total: 4.2 ± 1.1% and 4.2%
[1]; rats, 20 mg/kg
  Levels of the compound in bile and feces: insignificant levels
